{"source": "patent US10473670B2", "about": "(University of Kentucky Research Foundation, priority 2016, dated 2019)", "key": {"C57BL/6 mice [1]": {"test_system": "C57BL/6 mice", "test": "Acute SR 48692 treatment: proximal intestinal TG content after olive oil gavage", "assay_type": "in vivo", "settings": "2.5 mg/kg ip 30 min before olive oil gavage", "text": "(§1) FIGS. 13A-D show graphs and images illustrating that NT promotes intestinal cell lipid absorption or accumulation, while NT deficiency reduces intestinal lipid absorption A. Proximal intestines from mice given saline, olive oil, or olive oil+SR 48692 were collected and TG levels quantified as described above (n=8). Graph presents the fold change vs. control mice. * p<0.05 vs. control mice; † p<0.05 vs. mice with olive oil only. B. Male NT^+/+ and NT^−/− mice (n=4) on normal chow were fasted overnight. Mice were injected with either saline or SR 48692 (2.5 mg/kg, i.p). Thirty min after the injection, mice were given olive oil (10 μl/g) by oral gavage and then sacrificed. The proximal small bowel was excised and TG content measured. *p<0.05 vs. saline in NT^+/+ and NT^−/− mice; † p<0.05 vs. olive oil only in NT^+/+ mice; ‡ p<0.05 vs. olive oil only in NT^+/+ mice. C. Weekly body weight was measured in male wild type C57BL/6 mice fed HFD and treated with SR 48692 (2.5 mg/kg diluted in diH2O and administered by oral gavage twice a day) or vehicle (vehicle n=12; SR 48692 n=13). BW slopes were compared: * p<0.05 vehicle vs. SR treatment. D. Weekly food intake was measured in male wild type C57BL/6 mice (n=12-13) fed HFD and chronically treated with either SR 48692 or vehicle. […] All data are mean+/−SD. […]"}, "NT^+/+ and NT^−/− mice": {"test_system": "NT^+/+ and NT^−/− mice", "test": "Acute SR 48692 treatment repeated in NT+/+ and NT-/- mice: proximal intestinal TG", "assay_type": "in vivo", "settings": "2.5 mg/kg ip 30 min before olive oil", "text": "as §1"}, "C57BL/6 mice [2]": {"test_system": "C57BL/6 mice", "test": "Chronic SR 48692 treatment of HFD-fed mice: body weight and food intake", "assay_type": "in vivo", "settings": "wild type mice fed HFD", "text": "FIGS. 13A-D show graphs and images illustrating that NT promotes intestinal cell lipid absorption or accumulation, while NT deficiency reduces intestinal lipid absorption A. Proximal intestines from mice given saline, olive oil, or olive oil+SR 48692 were collected and TG levels quantified as described above (n=8). Graph presents the fold change vs. control mice. * p<0.05 vs. control mice; † p<0.05 vs. mice with olive oil only. B. Male NT^+/+ and NT^−/− mice (n=4) on normal chow were fasted overnight. Mice were injected with either saline or SR 48692 (2.5 mg/kg, i.p). Thirty min after the injection, mice were given olive oil (10 μl/g) by oral gavage and then sacrificed. The proximal small bowel was excised and TG content measured. *p<0.05 vs. saline in NT^+/+ and NT^−/− mice; † p<0.05 vs. olive oil only in NT^+/+ mice; ‡ p<0.05 vs. olive oil only in NT^+/+ mice. C. Weekly body weight was measured in male wild type C57BL/6 mice fed HFD and treated with SR 48692 (2.5 mg/kg diluted in diH2O and administered by oral gavage twice a day) or vehicle (vehicle n=12; SR 48692 n=13). […] D. Weekly food intake was measured in male wild type C57BL/6 mice (n=12-13) fed HFD and chronically treated with either SR 48692 or vehicle. […]\nAll procedures were approved by the Institutional Animal Care and Use Committee of the University of Kentucky. […] Body weight and food intake were measured weekly. […]"}, "AMPK [3]": {"test_system": "AMPK", "test": "Western blot of p-AMPK in proximal intestinal mucosa after olive oil gavage", "assay_type": "in vivo", "settings": "mice after olive oil gavage, with or without SR 48692 pretreatment", "procedure": "FIGS. 2A-M includes images and graphs illustrating NT deficiency reduces intestinal lipid absorption. A. (left panel) Fecal triglyceride (TG) was analyzed in male mice fed a high-fat diet (HFD) for 24 wks (n=3); * p=0.05 vs NT^+/+ mice; (right panel) Fecal weight was measured in male NT^+/+ and NT^−/− mice (n=7-9) fed either normal chow (NC) or HFD for 24 wks; there was no significant difference between genotypes. B. Oil red O (ORO) staining of proximal intestines from male mice (6-mo-old) under normal chow fed with or without olive oil by gavage after overnight fasting (n=3). C. Levels of ^13C18-oleic acid (OA) in male mice (5-mo-old) under normal chow fed with ^13C18-OA mixed in olive oil by gavage after an overnight fast was analyzed by nanospray FT-MS (n=3-4). Left panel, * p<0.05 vs. NT^+/+ mice. […] D. ORO staining of proximal intestines from male mice (5-mo-old) following gavage with or without olive oil plus NT after an overnight fast (left panel); TG was quantified (right panel) (n=5). * p<0.05 vs. Saline in NT^+/+ and NT^−/− mice, respectively; † p<0.05 vs. olive oil in NT^−/− mice; ‡ p<0.05 vs. olive oil in NT^+/+ mice. […] Densitometric quantification of p-AMPK was normalized to total AMPK and is presented as fold change vs. p-AMPK in NT^+/+ (right panel, n=9). * p<0.05 vs. NT^+/+. F. Protein extracts from mucosal scrapings of samples were analyzed by western blotting (left panel). […]"}, "[4]": {"test_system": "mTORC1 and ERK1/2 signaling", "test": "Western blot of p-S6K1 and p-ERK1/2 in BON cells", "assay_type": "cell-based, human", "settings": "pretreatment with CC 10 μM, AICAR 1 mM 3 h", "procedure": "FIGS. 16A-D show graphs and images illustrating Cross-talk of AMPK and mTORC1 signaling. A. Diagram of cross-talk of AMPK and mTORC1 signaling. B. Western blot analysis of BON cells treated with or without AICAR (left panel) or 1 mM AICAR and CC (10 μM) (right panel) for 3 h. C. NT EIA (upper panel) and western blotting (lower panel) on BON cells expressing control vector and myc-raptor S722A/S792A treated with AICAR (1 mM) for 3 h. D. NT EIA (upper panel) and western blotting (lower panel) on BON cells expressing control vector and NTC and TSC2 siRNA treated with AICAR (1 mM) for 3 h. *p<0.05 vs. control in vector, †p<0.05 vs. AICAR in vector (C); *p<0.05 vs. control in NTC siRNA, †p<0.05 vs. control in NTC siRNA, ‡ p<0.05 vs. AICAR in NTC siRNA (D). n=6. All data are mean+/−SD.\nAMPK activation inhibits mTORC1 through raptor, a component of mTORC1, or TSC2, a negative regulator of mTORC1 signaling. […] Moreover, a stable BON overexpression cell line was generated with a mutant raptor vector in which both Ser722 and Ser792 (AMPK phosphorylation sites) are replaced by alanine. […] Together, these findings further indicate the interaction of AMPK, mTORC1 and ERK signaling in the regulation of NT secretion."}, "AMPK [5]": {"test_system": "AMPK", "test": "Western blot of p-AMPK in FHs 74 Int cells", "assay_type": "cell-based, human", "settings": "FHs 74 Int cells treated with oleate 1 h", "method": "(§2) G. Human small intestinal cells (FHs74Int) (left panel) and RIE-1 cells (right panel) were treated with the indicated concentrations of oleate for 1 h and lysates were analyzed by western blotting. […] All data are mean+/−SD. Experiments in vitro were at least repeated three times.\n(§3) Tissues and cells were lysed with lysis buffer (Cell Signaling Technology), and equal amounts of protein were resolved on 4-12% NuPAGE BisTris gels (Life Technologies) and electrophoretically transferred to polyvinylidene difluoride (PVDF) membranes; the membranes were incubated with primary antibodies overnight at 4° C. followed by secondary antibodies conjugated with horseradish peroxidase. Membranes were developed using chemiluminescence (ECL) Western Blotting System from GE Healthcare Life Science (Piscataway, N.J.) and Thermo Scientific (Waltham, Mass.)."}, "AMPK [6]": {"test_system": "AMPK", "test": "Western blot of p-AMPK in RIE-1 cells", "assay_type": "cell-based, rat", "settings": "RIE-1 cells treated with oleate 1 h", "method": "as §2\nAll data are mean+/−SD. Experiments were repeated at least three times.\nas §3"}, "STC-1 cells": {"test_system": "STC-1 cells", "test": "NT release from STC-1 cells (NT EIA)", "assay_type": "cell-based, mouse", "settings": "OA 0.25 mM, phorbol myristate acetate 100 nM", "text": "FIGS. 15A-B show graphs and images illustrating that FFAR1 and FFAR4 agonists increase AMPK activity. A. NT IF (left panel), NT EIA (middle panel, *p<0.05 vs. control) and western blotting (right panel) of STC-1 cells. B. Real-time PCR. GAPDH was used as the internal control (BON cell expression was arbitrarily set at 1). All data are mean+/−SD.\nFFAR1 (previously known as GPR40) and FFAR4 (previously known as GPR120) are medium- to long-chain FFA G-protein-coupled receptors that have been implicated in the regulation of energy homeostasis and hormone secretion."}}, "note": "Entries after “also recorded” stand apart in the source; their conditions may differ."}
{"compound": "COc1cccc(OC)c1-c1cc(C(=O)NC2(C(=O)O)C3CC4CC(C3)CC2C4)nn1-c1ccnc2cc(Cl)ccc12", "note": "(stereo not shown) [SR 48692]", "values": [{"measurement": "intestinal FA absorption following olive oil gavage (proximal intestine TG)", "setting": "C57BL/6 mice [1]", "value": "decreased intestinal FA absorption"}, {"measurement": "lipid absorption after olive oil administration", "setting": "NT^+/+ and NT^−/− mice; NT-/- mice", "value": "did not further decrease lipid absorption"}, {"measurement": "intestinal FA absorption (as measured by TG accumulation)", "setting": "NT^+/+ and NT^−/− mice; wild type (NT+/+) mice", "value": "inhibited intestinal FA absorption"}, {"measurement": "body weight gain", "setting": "C57BL/6 mice [2]; 2.5 mg/kg oral gavage twice a day for 13 weeks", "value": "significantly attenuated body weight gain"}, {"measurement": "food intake (cumulative and weekly)", "setting": "C57BL/6 mice [2]; 2.5 mg/kg oral gavage twice a day, 2.5 mg/kg", "value": "without altering food intake; also recorded: did not show a significant difference"}, {"measurement": "p-AMPK expression in proximal intestine", "setting": "AMPK [3]", "value": "restored the p-AMPK expression to control levels"}]}
{"compound": "c1cc(-c2cnn3cc(-c4ccc(OCCN5CCCCC5)cc4)cnc23)ccn1", "note": "[compound C]", "values": [{"measurement": "effect of AICAR on p-S6K1 and p-ERK1/2", "setting": "[4]", "value": "attenuated this effect"}]}
{"compound": "CCCCCCCC/C=C\\CCCCCCCC(=O)[O-].[Na+]", "note": "[oleate, Oleate sodium]", "values": [{"measurement": "p-AMPK", "setting": "AMPK [5]", "value": "led to an increase in p-AMPK"}, {"measurement": "p-AMPK", "setting": "AMPK [6]", "value": "led to an increase in p-AMPK"}]}
{"compound": "CCCCCCCCCCCCCC(=O)O[C@@H]1[C@@H](C)[C@@]2(O)[C@@H](C=C(CO)C[C@]3(O)C(=O)C(C)=C[C@@H]23)[C@@H]2C(C)(C)[C@]12OC(C)=O", "note": "[phorbol myristate acetate]", "values": [{"measurement": "NT release", "setting": "STC-1 cells", "value": "stimulated NT release"}]}
